Earlier results, collected in US20100172986A1, “CONTROLLED RELEASE COMPOSITION AND PREPARATION THEREOF” (LOTUS PHARMACEUTICAL CO., LTD., priority 2006, published 2010).

Conditions: in adults

elimination half-life: six and seventeen
SMILES: CCCC(CCC)C(=O)O [valproic acid, 2-Propylpentanoic acid]
